Target: T1, rat P2X3 receptor (Rattus norvegicus, UniProt P49654)
T1 construct: expressed in transfected cells; host or cells: CHO-K1
T1 sequence (P49654 1-397): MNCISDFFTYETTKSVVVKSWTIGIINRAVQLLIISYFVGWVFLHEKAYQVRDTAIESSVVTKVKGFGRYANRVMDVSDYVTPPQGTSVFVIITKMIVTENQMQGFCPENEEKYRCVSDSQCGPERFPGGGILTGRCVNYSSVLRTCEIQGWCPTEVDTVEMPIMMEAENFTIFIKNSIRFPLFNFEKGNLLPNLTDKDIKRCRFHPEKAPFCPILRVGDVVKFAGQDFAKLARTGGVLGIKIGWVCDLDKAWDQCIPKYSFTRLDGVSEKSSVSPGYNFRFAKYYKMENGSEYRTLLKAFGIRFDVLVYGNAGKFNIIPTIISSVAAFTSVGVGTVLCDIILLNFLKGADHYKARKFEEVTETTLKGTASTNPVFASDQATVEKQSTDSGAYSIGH
Assay: P2X3 FLIPR (Fluorometric Imaging Plate Reader) assay
Type: cell-based
Settings: CHO-K1 cells transfected with cloned rat P2X3; agonist α,β-meATP 1 μM; Fluo-3 AM calcium fluorescence
Procedure: CHO-K1 cells were transfected with cloned rat P2X3 or human P2X2/3 receptor subunits and passaged in flasks. 18-24 hours before the FLIPR experiment, cells were released from their flasks, centrifuged, and resuspended in nutrient medium at 2.5×10^5 cells/ml. The cells were aliquoted into black-walled 96-well plates at a density of 50,000 cells/well and incubated overnight in 5% CO2 at 37° C. On the day of the experiment, cells were washed in FLIPR buffer (calcium- and magnesium-free Hank's balanced salt solution, 10 mM HEPES, 2 mM CaCl2, 2.5 mM probenecid; FB). Each well received 100 μl FB and 100 μl of the fluorescent dye Fluo-3 AM [2 μM final conc.]. After a 1 hour dye loading incubation at 37° C., the cells were washed 4 times with FB, and a final 75 μl/well FB was left in each well.
Test compounds (dissolved in DMSO at 10 mM and serially diluted with FB) or vehicle were added to each well (25 μl of a 4× solution) and allowed to equilibrate for 20 minutes at room temperature. The plates were then placed in the FLIPR and a baseline fluorescence measurement (excitation at 488 nm and emission at 510-570 nm) was obtained for 10 seconds before a 100 μl/well agonist or vehicle addition. The agonist was a 2X solution of α,β-meATP producing a final concentration of 1 μM (P2X3) or 5 μM (P2X2/3). Fluorescence was measured for an additional 2 minutes at 1 second intervals after agonist addition. A final addition of ionomycin (5 μM, final concentration) was made to each well of the FLIPR test plate to establish cell viability and maximum fluorescence of dye-bound cytosolic calcium. Peak fluorescence in response to the addition of α,β-meATP (in the absence and presence of test compounds) was measured and inhibition curves generated using nonlinear regression. PPADS, a standard P2X antagonist, was used as a positive control.

| Structure (SMILES) | P2X3 (pIC50 values for the P2X3 receptor) |
| --- | --- |
| CC(NC(=O)c1cc(-c2ccc(Cl)cc2)cc(N(C)C(=O)N(C)C)c1)c1cnccn1 (centres unmarked) [Compound 57, 4′-Chloro-5-(trimethyl-ureido)-biphenyl-3-carboxylic acid (1-pyrazin-2-yl-ethyl)-amide] | 6.26 |
| Cc1ccc(-c2cc(C(=O)N[C@@H](C)CO)cc(N(C)C(=O)C(C)C)c2)c(F)c1 [Compound 59, 2′-Fluoro-5-(isobutyryl-methyl-amino)-4′-methyl-biphenyl-3-carboxylic acid ((S)-2-hydroxy-1-methyl-ethyl)-amide] | 8.16 |
| Cc1ccc(-c2cc(C(=O)NCc3cnccn3)cc(N(C)C(=O)C(C)C)c2)c(F)c1 [Compound 60, 2′-Fluoro-5-(isobutyryl-methyl-amino)-4′-methyl-biphenyl-3-carboxylic acid (pyrazin-2-ylmethyl)-amide] | 7.8 |
| CC(=O)N1CCC(C(=O)N(C)c2cc(C(=O)NC(C)c3cnccn3)cc(-c3ccc(C)cc3)c2)CC1 (centres unmarked) [Compound 61, 1-Acetyl-piperidine-4-carboxylic acid methyl-[4′-mcthyl-5-(1-pyrazin-2-yl-ethylcarbamoyl)-biphenyl-3-yl]-amide] | 5.7 |
| Cc1ccc(-c2cc(C(=O)NCc3cnccn3)cc(N(C)C(=O)C(C)C)c2)cc1 [Compound 62, 5-(Isobutyryl-methyl-amino)-4′-methyl-biphenyl-3-carboxylic acid (pyrazin-2-ylmethyl)-amide] | 8.14 |
| COC[C@@H](C)NC(=O)c1cc(-c2ccc(Cl)cc2Cl)cc(N(C)C(=O)C(C)C)c1 [Compound 63, 2′,4′-Dichloro-5-(isobutyryl-methyl-amino)-biphenyl-3-carboxylic acid ((R)-2-methoxy-1-methyl-ethyl)-amide] | 5.94 |
| COC[C@@H](C)NC(=O)c1cc(-c2ccc(F)cc2F)cc(N(C)C(=O)C(C)C)c1 [Compound 65, 2′,4′-Difluoro-5-(isobutyryl-methyl-amino)-biphenyl-3-carboxylic acid ((R)-2-methoxy-1-methyl-ethyl)-amide] | 5.38 |
| CC(C)C(=O)N(C)c1cc(C(=O)N[C@@H](C)CO)cc(-c2ccc(Cl)cn2)c1 [Compound 69, 3-(5-Chloro-pyridin-2-yl)-N-((S)-2-hydroxy-1-methyl-ethyl)-5-(isobutyryl-methyl-amino)-benzamide] | 6.86 |
| Cc1ccc(-c2cc(C(=O)N[C@@H](C)CO)cc(N(C)C(=O)C(C)C)c2)nc1 [Compound 72, N-((S)-2-Hydroxy-1-methyl-ethyl)-3-(isobutyryl-methyl-amino)-5-(5-methyl-pyridin-2-yl)-benzamide] | 7.58 |

Next, values leading:

| P2X3 (pIC50 values for the P2X3 receptor) | Structure (SMILES) |
| --- | --- |
| 6.29 | Cc1ccc(-c2cc(C(=O)NC(C)c3cnccn3)cc(N(C)C(=O)C(C)C)c2)c(Cl)c1 (centres unmarked) [Compound 54, 2′-Chloro-5-(isobutyryl-methyl-amino)-4′-methyl-biphenyl-3-carboxylic acid (1-pyrazin-2-yl-ethyl)-amide] |
| 5.53 | Cc1ccc(-c2cc(C(=O)N[C@@H](C)CO)cc(N(C)C(=O)C(C)C)c2)c(Cl)c1 [Compound 55, 2′-Chloro-5-(isobutyryl-methyl-amino)-4′-methyl-biphenyl-3-carboxylic acid ((S)-2-hydroxy-1-methyl-ethyl)-amide] |
| 5.6 | Cc1ccc(-c2cc(C(=O)NCc3cnccn3)cc(N(C)C(=O)C(C)C)c2)c(Cl)c1 [Compound 56, 2′-Chloro-5-(isobutyryl-methyl-amino)-4′-methyl-biphenyl-3-carboxylic acid (pyrazin-2-ylmethyl)-amide] |
| 8.25 | Cc1ccc(-c2cc(C(=O)NC(C)c3cnccn3)cc(N(C)C(=O)C(C)C)c2)c(F)c1 (centres unmarked) [Compound 58, 2′-Fluoro-5-(isobutyryl-methyl-amino)-4′-methyl-biphenyl-3-carboxylic acid (1-pyrazin-2-yl-ethyl)-amide] |
| 7.5 | CC(C)C(=O)N(C)c1cc(C(=O)NC(C)c2cnccn2)cc(-c2ccc(Cl)cc2Cl)c1 (centres unmarked) [Compound 64, 2′,4′-Dichloro-5-(isobutyryl-methyl-amino)-biphenyl-3-carboxylic acid (1-pyrazin-2-yl-ethyl)-amide] |
| 6.63 | CC(C)C(=O)N(C)c1cc(C(=O)NC(C)c2cnccn2)cc(-c2ccc(F)cc2F)c1 (centres unmarked) [Compound 66, 2′,4′-Difluoro-5-(isobutyryl-methyl-amino)-biphenyl-3-carboxylic acid (1-pyrazin-2-yl-ethyl)-amide] |
| 7.75 | CC(C)C(=O)N(C)c1cc(C(=O)NC(C)c2cnccn2)cc(-c2ccc(Cl)cn2)c1 (centres unmarked) [Compound 67, 3-(5-Chloro-pyridin-2-yl)-5-(isobutyryl-methyl-amino)-N-(1-pyrazin-2-yl-ethyl)-benzamide] |
| 8.11 | Cc1ccc(-c2cc(C(=O)NC(C)c3cnccn3)cc(N(C)C(=O)C(C)C)c2)nc1 (centres unmarked) [Compound 70, 3-(Isobutyryl-methyl-amino)-5-(5-methyl-pyridin-2-yl)-N-(1-pyrazin-2-yl-ethyl)-benzamide] |

From patent publication US9505726B2, “Substituted biphenyl amides as P2X3 and P2X2/3 antagonists” (Roche Palo Alto LLC, priority 2009, dated 2016)
